Measured values published in patent US6492391B1, “Crystal modification d of 8-cyano-1-cyclopropyl-7-(1s, 6s- 2,8-diazabicyclo-[4.3.0]nonan-8-yl)-6-fluoro-1,4- dihydro-4-oxo-3-quinolinecarboxylic acid” (Bayer Aktiengesellschaft, priority 1999, dated 2002).

Columns and labels:
[1] = storage stability of the crystal modification; type: physicochemical; details: prolonged storage; solid state
From the text: For these reasons, it is highly suitable for preparing tablets or other solid formulations. Owing to its stability, it gives these formulations the desired long-lasting storage stability. Using the crystal modification D, it is therefore possible to prepare, in a defined and targeted manner, stable solid preparations of CCDC.

pathogenic bacteria = experiment: activity against pathogenic bacteria; details: human or veterinary medicine
From the text: Its broad area of use corresponds to that of CCDC.

[2] = hygroscopicity of the solid; type: physicochemical; details: powder obtained by the prior-art preparation process
From the text: The partially amorphous powder which is obtained by the preparation process outlined above is furthermore hygroscopic. However, amorphous solids, and in particular hygroscopic solids, are difficult to handle when being processed pharmaceutically since, for example, they have low bulk densities and unsatisfactory flow properties. Moreover, the handling of hygroscopic solids requires special work techniques and apparatuses to obtain reproducible results, for example with respect to the active compound content or the stability of the solid formulations produced.

N#Cc1c(N2C[C@@H]3CCCN[C@@H]3C2)c(F)cc2c(=O)c(C(=O)O)cn(C3CC3)c12 [CCDC of the crystal modification D, 8-cyano-1-cyclopropyl-7-(1S,6S-2,8-diazabicyclo[4.3.0]nonan-8-yl)-6-fluoro-1,4-dihydro-4-oxo-3-quinolinecarboxylic acid]
stability of the crystal modification on storage [1]: surprisingly stable and does not change into another crystal modification or the amorphous form, even on prolonged storage | activity against pathogenic bacteria (pathogenic bacteria): highly active

N#Cc1c(N2C[C@@H]3CCCN[C@@H]3C2)c(F)cc2c(=O)c(C(=O)O)cn(C3CC3)c12 [partially amorphous powder, 8-cyano-1-cyclopropyl-7-(1S,6S-2,8-diazabicyclo[4.3.0]nonan-8-yl)-6-fluoro-1,4-dihydro-4-oxo-3-quinolinecarboxylic acid]
hygroscopicity [2]: hygroscopic
